pIC50: −log10 of the molar value. Calls of active or inactive are those of the source. No rule for the calls is given here. Some results are limits rather than exact numbers.

Chain of Ubiquitin carboxyl-terminal hydrolase 10 (Homo sapiens) (Q14694 whole entry, looked up): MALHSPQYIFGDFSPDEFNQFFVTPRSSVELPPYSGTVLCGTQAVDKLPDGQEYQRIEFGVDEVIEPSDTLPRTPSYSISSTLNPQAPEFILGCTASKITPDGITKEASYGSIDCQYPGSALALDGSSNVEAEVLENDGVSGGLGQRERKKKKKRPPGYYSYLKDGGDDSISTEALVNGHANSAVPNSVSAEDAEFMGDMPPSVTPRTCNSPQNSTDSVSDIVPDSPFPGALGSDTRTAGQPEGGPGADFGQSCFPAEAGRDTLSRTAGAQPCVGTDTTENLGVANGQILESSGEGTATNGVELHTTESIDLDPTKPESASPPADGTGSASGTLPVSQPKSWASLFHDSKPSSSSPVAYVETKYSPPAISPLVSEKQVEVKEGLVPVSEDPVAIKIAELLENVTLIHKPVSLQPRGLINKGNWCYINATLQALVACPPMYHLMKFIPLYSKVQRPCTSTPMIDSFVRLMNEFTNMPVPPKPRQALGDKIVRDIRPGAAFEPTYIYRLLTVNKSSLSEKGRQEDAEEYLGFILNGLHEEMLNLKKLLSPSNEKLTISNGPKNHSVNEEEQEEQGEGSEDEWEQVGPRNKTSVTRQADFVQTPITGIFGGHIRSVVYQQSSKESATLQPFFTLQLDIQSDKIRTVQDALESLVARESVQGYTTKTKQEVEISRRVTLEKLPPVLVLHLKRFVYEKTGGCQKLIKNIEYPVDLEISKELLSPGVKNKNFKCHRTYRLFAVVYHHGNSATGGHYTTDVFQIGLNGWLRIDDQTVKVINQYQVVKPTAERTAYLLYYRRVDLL

The assay addresses Ubiquitin carboxyl-terminal hydrolase 10 (Homo sapiens) (UniProt Q14694). In words: primary hit verification, biochemical, ubiquitin-specific protease 10 deubiquitylase inhibitors, concentration-effect titration (AID 1645863).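 Also: potency values describe inhibition of USP10 cleavage of a fluorogenic ubiquitin substrate.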 The conditions noted are these: USP10 deubiquitinase enzymatic assay.
One may read the pIC50 as the negative decadic logarithm of the IC50, by convention in mol/L. Turning to `O=C(CSc1nnc2n(-c3ccccc3)c(=O)c3ccccc3n12)c1ccc(F)cc1`, the pIC50 was 4.89.
As a reminder, the IC50 is the concentration at which inhibition is half-maximal. For the compound `O=C(COc1cccc(-c2noc(-c3ccc([N+](=O)[O-])cc3)n2)c1)Nc1ccccc1`, the IC50 is > 40 µM (inactive).
On to `CNc1ncc(C(=O)N2CCOC(C(=O)N3CCCCCC3)C2)cn1` (stereo not given), for which the IC50 was > 40 µM (inactive).
Take `O=C(Cn1c(=O)n(-c2ccc(CC(=O)NC3CCCC3)cc2)c(=O)c2ccccc21)Nc1ccccc1[N+](=O)[O-]`: the pIC50 was 4.70.
As for `COC(=O)c1ccc2c(=O)n(CCCCCC(=O)NCCc3ccc(OC)c(OC)c3)c(=O)[nH]c2c1`, the IC50 is > 40 µM (inactive).
For the compound `O=c1c2ccccc2nc(/C=C/c2ccco2)n1Cc1ccccc1`, the IC50 was > 40 µM (inactive).
As to `O=C(NCCc1nc2ccccc2n1CCOc1ccccc1Cl)C1CCCCC1`, the negative-log IC50 (pIC50) was 4.43.
Still for that read-out and setting: under `O=C(Cn1c(=O)c2ccccc2c2ccccc21)Nc1ccc2c(c1)OCO2` stands 4.46.
On to `O=C(Nc1ccc2snnc2c1)Nc1ccc(F)cc1F`, for which the IC50 was > 40 µM (inactive).
Turning to `O=C(CCCCCn1c(=O)c2sccc2n(CC(=O)c2ccc(Cl)c(Cl)c2)c1=O)NCc1ccc2c(c1)OCO2`, the pIC50 is 4.98.
In the case of `CCOc1ccc2[nH]c(=O)c(-c3nc4ccc(C)cn4c3NCc3ccccc3)cc2c1`, the IC50 was > 40 µM (inactive).
Consider `COc1ccc(-c2nc3c(c(=O)c4ccccc4n3C)c(=O)n2Cc2ccco2)cc1`, for which the pIC50 was 4.54.
In the case of `CCCCNC(=O)C1Sc2nnc(-c3ccccc3)n2NC1c1ccccc1` (stereo not given), the IC50 is > 40 µM (inactive).
Regarding `O=C(NCCc1nc2ccccc2n1CCCOc1ccccc1Cl)C1CCCCC1`, the pIC50 is 4.48.
`CN(C)c1ccc(S(=O)(=O)N2CCCCC2)cc1NC(=O)COc1ccccc1`: the IC50 is > 40 µM (inactive).
On to `O=c1[nH]c2ccc(S(=O)(=O)Nc3ccc(O)c4ccccc34)cc2[nH]1`, for which the pIC50 is 4.41.
As to `Cc1ccccc1NC(=O)Cc1csc2nc(-c3ccc(F)cc3)cn12`, the IC50 was > 40 µM (inactive).
Regarding `CS(=O)(=O)NC1CCCN(C(=O)Nc2cccc3ccccc23)C1` (stereo not given), the IC50 is > 40 µM (inactive).
`COc1cn(-c2ccc(F)cc2)nc1C(=O)Nc1ccc(Cl)cc1Cl`: the pIC50 was 4.79.
On to `CSc1cccc(NC(=O)C2C3C=CC4(O3)C2C(=O)N(CCc2ccccc2)C4C(=O)NC2CCCCC2)c1` (stereo not given), for which the IC50 was > 40 µM (inactive).
`Cc1c(NC(=O)/C=C/c2cccc(Cl)c2Cl)cccc1-n1cnnn1`: the IC50 was > 40 µM (inactive).
On the same count and under the same terms, the result for `Cc1ccc(-c2nc3c(c(SCC(=O)c4ccccc4)n2)COC(C)(C)C3)cc1` reads > 40 µM (inactive); that for `CCOc1cccc(-c2noc(-c3nn(-c4ccccc4)ccc3=O)n2)c1`, > 40 µM (inactive).
Take `COC(=O)c1c(OC)cc2c(c1C)Oc1c(Cl)c(O)c(Cl)c(C)c1C(=O)O2`: the pIC50 was 4.76.
The same measure, in the same setting: the result for `COc1cccc(NC(=O)Cn2c3ccccc3n3c(=O)cc(-c4ccccc4)nc23)c1` reads 4.84.
With `COc1ccc(Sc2nc3ccccc3n3cnnc23)cc1`, the IC50 is > 40 µM (inactive).
As for `COc1ccc(OC)c2c(C)cc(N3CC(C)CC(C)C3)nc12` (stereo not given), the IC50 was > 40 µM (inactive).
Turning to `CCOc1ccc2c(c1)c(=O)c(C(=O)c1ccccc1)cn2CC(=O)Nc1ccc2c(c1)OCCO2`, the pIC50 is 4.65.
Turning to `O=C(c1cscn1)N1CCC2(CC1)CC1(CO2)Nc2ccccc2-n2cccc21` (stereo not given), the IC50 was > 40 µM (inactive).
Turning to `COc1cccc(C(=O)Nc2ccc(SC(C)C(=O)Nc3ccc(C(N)=O)cc3)cc2)c1` (stereo not given), the pIC50 was 4.60.
For `O=C(Nc1ccc2c(c1)CCC2)C1Cc2ccccc2CN1C(=O)c1ccccc1` (stereo not given), the IC50 was > 40 µM (inactive).
The same measure, in the same setting: under `COc1cc(NC(=O)Cn2c(=O)n(-c3ccc(CC(=O)NC4CCCC4)cc3)c(=O)c3ccccc32)cc(OC)c1` stands > 40 µM (inactive).
The same measure, in the same setting: under `COc1ccc(NC(=O)Cn2c(=O)n(CCCC(=O)NCCc3ccc(OC)c(OC)c3)c(=O)c3ccccc32)cc1Cl` stands > 40 µM (inactive); under `COc1ccc(NC(=O)c2nnc(C(=O)NCCN3CCCCCC3)s2)cc1`, > 40 µM (inactive); under `Cc1ccc(Cn2c(C(=O)O)c(CNCc3ccco3)c3ccccc32)cc1`, > 40 µM (inactive).
The same measure, in the same setting: under `NS(=O)(=O)c1ccc(CNS(=O)(=O)/C=C/c2ccccc2)cc1` stands > 40 µM (inactive).
In the case of `COc1ccc(Nc2nnc(Cc3ccc(Cl)cc3)c(=O)[nH]2)cc1`, the pIC50 is 4.73.
With `CC(C)=CCc1c2c(c3occ(-c4ccc(O)cc4)c(=O)c3c1O)C=CC(C)(C)O2`, the IC50 is > 40 µM (inactive).
In the case of `C[C@@H]1CO[C@@H]2C3=C(C(=O)C=CC3=O)[C@H]3OC(=O)[C@@H]4CCC5[C@@H]1CCC52C34` (stereo not given in full), the pIC50 is 4.73.
For `CCC(C)N1CNc2c(c(=O)[nH]c(=O)n2Cc2ccco2)C1` (stereo not given), the IC50 was > 40 µM (inactive).
As for `Cn1c(C(=O)NCc2ccccn2)cc2c(=O)[nH]c3ccccc3c21`, the IC50 is > 40 µM (inactive).
Same read-out and setting: the result for `COc1ccc(S(=O)(=O)NC2CC(=O)N(c3ccc(Cl)cc3)C2)cc1` (stereo not given) reads > 40 µM (inactive); that for `Cc1[nH]c2ccc(F)cc2c(=O)c1CN1CCCCC1`, > 40 µM (inactive).
Regarding `COc1ccc(NC(=O)Cn2cc(C(=O)c3ccc(Cl)cc3)c(=O)c3cc(F)ccc32)cc1`, the negative logarithm of the IC50 (pIC50) was 4.88.
Regarding `CCCCN1CC(C(=O)Nc2ccc(C(=O)Nc3ccc(C(N)=O)cc3)cc2)CC1=O` (stereo not given), the IC50 is > 40 µM (inactive).
The same measure, in the same setting: the result for `CC1=C(C)C(N(c2ccccc2)c2ccccc2)N(CCC(C)C)C1=O` (stereo not given) reads > 40 µM (inactive); that for `CCOc1ccc2c(c1)c(=O)c(C(=O)c1ccc(F)cc1)cn2CC(=O)Nc1ccccc1`, > 40 µM (inactive).
The same measure, in the same setting: under `Cc1ccc(-c2nn(C(C)(C)C)c3ncnc(NS(=O)(=O)c4ccc(Cl)cc4)c23)cc1` stands > 40 µM (inactive).
In the case of `CCCCCCCc1cc(OC(=O)c2c(CCCCCCC)cc(O)cc2O[C@@H]2O[C@H](CO)[C@@H](O)[C@H](O)[C@H]2O)cc(O)c1C(=O)O`, the pIC50 was 5.40.
Same read-out and setting: the result for `CCOc1ccc(-n2c(SCC(=O)Nc3ccc(C)cc3)nnc2-c2c[nH]c3ccccc23)cc1` reads 5.05; that for `COc1ccc(CC(=O)Nc2c(NCc3ccccc3)c3ccccc3oc2=O)cc1`, 4.42.
Same read-out and setting: under `COc1ccc(NC(=O)Cn2c(C)cc(=O)n3nc(-c4cccc(C)c4)nc23)cc1` stands 4.43.
On to `Cc1ccc(NC(=O)c2cc(-c3cccnc3)n[nH]2)cc1F`, for which the IC50 is > 40 µM (inactive).
The same measure, in the same setting: the result for `COc1ccc(Cn2nc(C)cc2NC(=O)c2cccc(F)c2)cc1OC` reads > 40 µM (inactive).
Turning to `Cc1ccc(CNC(=O)Cn2c(=O)n(CCCC(=O)NCc3ccc(F)cc3)c(=O)c3ccccc32)cc1`, the pIC50 is 4.76.

The values are drawn from PubChem BioAssay AID1645863 (Buhrlage Lab, Dana-Farber Cancer Institute and Novartis …, 2021).
